Read-outs that look alike come from different tables or passages of the source.
Key:
JJN-3 cells = test: Antiproliferative activity on JJN-3 (NIK translocated) multiple myeloma cells (CellTiter-Glo); assay type: cell-based, human; details: JJN-3 (NIK translocated) cells, 96 hr treatment, averaged values, read-out: JJN-3 Proliferation inhibition (IC50 (nM))
Method in brief: (§1)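 Cells in RPMI 1640 with 2 mM L-glutamine and 10% FCS, treated 96 hr at 37 °C with 9-point 1:3 dilution series, 0.3% DMSO final. Viability read by CellTiter-Glo luminescence, mean of 2 wells. Time-zero blank subtracted; growth expressed as % of untreated control.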

KMS12-BM cells = test: Antiproliferative activity on KMS12-BM (NIK WT) multiple myeloma cells (CellTiter-Glo); assay type: cell-based, human; details: 96 hr treatment, averaged values, read-out: KMS-12 Proliferation inhibition (IC50 (nM))
Method in brief: as §1

NIK/MAP3K14 = NIK/MAP3K14 (Homo sapiens (Human), UniProt Q99558); test: Inhibition of auto-phosphorylation of recombinant human NF-kappaB-inducing kinase (NIK/MAP3K14) activity (AlphaScreen); assay type: biochemical; details: averaged values over all measurements on all batches, 25 microM ATP
Method in brief: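 GST-tagged NIK (0.2 nM) auto-phosphorylation was run with 25 microM ATP in pH 7.5 Tris buffer with MgCl2 for 1 h at 25 °C. It was detected by AlphaScreen with anti-phospho-IKK Ser176/180 antibody. IC50 came from sigmoidal fits of blank-subtracted % inhibition versus log concentration.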

[1] = test system: P-IKKα levels in L363 cells; test: Effect of compounds on P-IKKα levels in L363 (NIK translocated multiple myeloma) cells; assay type: cell-based, human; details: 2 hr treatment, averaged values, read-out: Inhibition of pIKKα_L-363 (IC50 (nM))
Method: Effect of Compounds on P-IKKα Levels in L363 (NIK Translocated Multiple Myeloma) Cells
All compounds tested were dissolved in DMSO and further dilutions were made in culture medium. Final DMSO concentration was 1% (v/v) in cell assays. The human L363 cells (ATCC) were cultured in RPMI 1640 medium supplemented with GlutaMax and 10% fetal calf serum (PAA). Cells were routinely maintained at densities of 0.2×10^6 cells per ml—1×10^6 cells per ml at 37° C. in a humidified 5% CO2 atmosphere. Cells were passaged twice a week splitting back to obtain the low density. Cells were seeded in 96 well plates (Nunc 167008) at 2×10^6 per ml media in a volume of 75 μl per well plus 25 μl 1 μg/ml recombinant human B-cell activating factor (BAFF/BLyS/TNFSF13B). Seeded cells were incubated at 37° C. in a humidified 5% CO2 atmosphere for 24 hr. Drugs and/or solvents were added (20 μl) to a final volume of 120 μl. Following 2 hr treatment plates were removed from the incubator and cell lysis was achieved by the addition of 30 μl 5× lysis buffer followed by shaking on a plate shaker at 4° C. for 10 min. At the end of this incubation lysed cells were centrifuged at 800×g for 20 min at 4° C. and the lysate was assessed for P-IKKα levels by sandwich immuno-assay carried out in anti-rabbit antibody coated Mesoscale plates. Within an experiment, the results for each treatment were the mean of 2 replicate wells. For initial screening purposes, compounds were tested using an 8 point dilution curve (serial 1:3 dilutions). For each experiment, controls (containing MG132 and BAFF but no test drug) and a blank incubation (containing MG132 and BAFF and 10 μM ADS125117, a test concentration known to give full inhibition) were run in parallel. The blank incubation value was subtracted from all control and sample values. To determine the IC50 a sigmoidal curve was fitted to the plot of % inhibition of control P-IKKα levels versus Log10 compound concentration.

Chain of NIK/MAP3K14 (Q99558 whole entry): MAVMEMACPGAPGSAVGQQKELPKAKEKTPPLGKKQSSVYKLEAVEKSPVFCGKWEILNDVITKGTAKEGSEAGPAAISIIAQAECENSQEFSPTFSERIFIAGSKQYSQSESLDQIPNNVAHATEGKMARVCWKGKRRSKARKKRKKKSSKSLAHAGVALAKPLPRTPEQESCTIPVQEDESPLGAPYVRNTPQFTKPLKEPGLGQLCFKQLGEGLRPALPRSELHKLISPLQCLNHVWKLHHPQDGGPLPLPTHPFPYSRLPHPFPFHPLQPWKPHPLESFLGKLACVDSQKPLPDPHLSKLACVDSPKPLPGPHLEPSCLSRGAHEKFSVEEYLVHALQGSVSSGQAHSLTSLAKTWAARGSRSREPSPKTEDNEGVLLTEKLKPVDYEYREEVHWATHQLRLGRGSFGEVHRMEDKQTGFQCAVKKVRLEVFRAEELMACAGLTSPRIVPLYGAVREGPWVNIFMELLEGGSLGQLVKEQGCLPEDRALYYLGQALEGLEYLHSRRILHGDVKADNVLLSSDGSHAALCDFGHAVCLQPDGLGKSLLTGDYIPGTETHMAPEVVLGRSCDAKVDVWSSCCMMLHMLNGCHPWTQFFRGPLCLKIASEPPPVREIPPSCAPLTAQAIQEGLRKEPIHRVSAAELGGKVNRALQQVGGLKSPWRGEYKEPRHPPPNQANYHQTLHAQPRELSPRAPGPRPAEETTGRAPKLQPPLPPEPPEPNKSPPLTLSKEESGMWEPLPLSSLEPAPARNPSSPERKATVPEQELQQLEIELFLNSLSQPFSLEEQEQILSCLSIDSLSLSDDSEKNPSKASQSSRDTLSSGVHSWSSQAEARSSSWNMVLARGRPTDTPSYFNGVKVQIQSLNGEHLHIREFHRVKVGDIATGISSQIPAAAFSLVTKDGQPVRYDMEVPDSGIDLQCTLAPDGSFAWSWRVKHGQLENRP

SMILES	IC50 (JJN-3 cells)	IC50 (KMS12-BM cells)	IC50 (NIK/MAP3K14)	IC50 [1]	IC50 (JJN-3 cells; Homo sapiens, JJN-3, 96 h)	IC50 (KMS12-BM cells; Homo sapiens, KMS-12-BM, 96 h)	IC50 ([1]; Homo sapiens, L-363, 2 h)
CC(C)(O)Cn1ccc2c(Nc3nccc(-c4cc(C#N)c5c(c4)C(C)(C)CN5)n3)cc(Cl)cc21 [Compound 2c]			87.1 nM		123 nM	~6030 nM	78 nM
C[C@]1(CO)CNc2c(C#N)cc(-c3ccnc(Nc4cnn5c4OCCC5)n3)cc21 [Compound 14b]			2 nM		155 nM	3980 nM	6 nM
CN1CCc2cc(Nc3nccc(-c4cc(C#N)c5c(c4)[C@@](C)(CO)CN5)n3)ccc2C1 [Compound 30]			0.8 nM		4 nM	10 nM	2 nM

Continued, values first:

IC50 (JJN-3 cells)	IC50 (KMS12-BM cells)	IC50 (NIK/MAP3K14)	IC50 [1]	IC50 (JJN-3 cells; Homo sapiens, JJN-3, 96 h)	IC50 (KMS12-BM cells; Homo sapiens, KMS-12-BM, 96 h)	IC50 ([1]; Homo sapiens, L-363, 2 h)	SMILES
263 nM	> 10000 nM	5.2 nM	13 nM				CC1CCCn2ncc(Nc3nccc(-c4cc(C#N)c5c(c4)[C@@](C)(CO)CN5)n3)c2O1 (single isomer, unassigned) [Compound 30b]
		35.5 nM		2400 nM	> 10000 nM	204 nM	C[C@]1(CO)CNc2c(C#N)cc(-c3ccnc(Nc4cc5c(n(CCC6CC6)c4=O)CCOC5)n3)cc21 [Compound 58]
		1.7 nM		195 nM	525 nM	10 nM	COc1nc2c(cc1Nc1nccc(-c3cc(C#N)c4c(c3)[C@@](C)(CO)CN4)n1)CN(C)CC2 [Compound 32]
		8.1 nM		776 nM	> 10000 nM	17 nM	COCCCc1nc2c(cc1Nc1nccc(-c3cc(C#N)c4c(c3)[C@@](C)(CO)CN4)n1)COCC2 [Compound 33]
